Results: ChEMBL document CHEMBL1629634, “Postantibiotic effect of tigecycline against 14 gram-positive organisms” (Antimicrob Agents Chemother, 2009)
In brackets after ≈: the same amount, converted by molar mass.

How the values were obtained:
Klebsiella pneumoniae [1] = experiment: Antibacterial activity against Klebsiella pneumoniae assessed as sub-MIC effect at 0.4 times MIC concentration incubated for 1 hr by viable plate count method; format: functional
Enterococcus faecalis [2] = experiment: Antibacterial activity against vancomycin-resistant Enterococcus faecalis assessed as post-antibiotic sub-MIC effect at 0.2 times MIC concentration pretreated with 10 times MIC concentration for 1 hr followed by 1:1000 dilution by viable plate count method; format: functional
Acinetobacter baumannii [3] = experiment: Antibacterial activity against multidrug-resistant Acinetobacter baumannii producing OXA-24 and OXA-51 beta-lactamases assessed as sub-MIC effect at 0.3 times MIC concentration incubated for 1 hr by viable plate count method; format: functional
Acinetobacter baumannii [4] = experiment: Antibacterial activity against Acinetobacter baumannii assessed as post-antibiotic sub-MIC effect at 0.4 times MIC concentration pretreated with 6 times MIC concentration for 1 hr followed by 1:1000 dilution by viable plate count method; format: functional
Enterococcus faecalis [5] = experiment: Antibacterial activity against vancomycin-resistant Enterococcus faecalis assessed as sub-MIC effect at 0.2 times MIC concentration incubated for 1 hr by viable plate count method; format: functional
Staphylococcus aureus [6] = experiment: Antibacterial activity against vancomycin-intermediate methicillin-resistant Staphylococcus aureus assessed as post-antibiotic sub-MIC effect at 0.2 times MIC concentration pretreated with 6 times MIC concentration for 1 hr followed by 1:1000 dilution by viable plate count method; format: functional
Haemophilus influenzae [7] = experiment: Antibacterial activity against amoxicillin, clavulanate-resistant Haemophilus influenzae expressing beta-lactamase assessed as post-antibiotic sub-MIC effect at 0.3 times MIC concentration pretreated with 6 times MIC concentration for 1 hr followed by 1:1000 dilution by viable plate count method; format: functional
Staphylococcus aureus [8] = experiment: Antibacterial activity against vancomycin-sensitive methicillin-resistant Staphylococcus aureus assessed as post-antibiotic sub-MIC effect at 0.2 times MIC concentration pretreated with 10 times MIC concentration for 1 hr followed by 1:1000 dilution by viable plate count method; format: functional
Klebsiella pneumoniae [9] = experiment: Antibacterial activity against Klebsiella pneumoniae assessed as post-antibiotic sub-MIC effect at 0.3 times MIC concentration pretreated with 2 times MIC concentration for 1 hr followed by 1:1000 dilution by viable plate count method; format: functional
Acinetobacter baumannii [10] = experiment: Antibacterial activity against Acinetobacter baumannii assessed as sub-MIC effect at 0.3 times MIC concentration incubated for 1 hr by viable plate count method; format: functional
Haemophilus influenzae [11] = experiment: Antibacterial activity against beta-lactamase deficient ampicillin-resistant Haemophilus influenzae assessed as post-antibiotic sub-MIC effect at 0.2 times MIC concentration pretreated with 10 times MIC concentration for 1 hr followed by 1:1000 dilution by viable plate count method; format: functional
Staphylococcus aureus [12] = experiment: Antibacterial activity against vancomycin-intermediate methicillin-resistant Staphylococcus aureus assessed as post antibiotic effect at 10 times MIC concentration incubated for 1 hr measured after 1:1000 dilution by viable plate count method; format: functional
Escherichia coli [13] = experiment: Antibacterial activity against Escherichia coli assessed as post-antibiotic sub-MIC effect at 0.2 times MIC concentration pretreated with 6 times MIC concentration for 1 hr followed by 1:1000 dilution by viable plate count method; format: functional
Acinetobacter baumannii [14] = experiment: Antibacterial activity against multidrug-resistant Acinetobacter baumannii producing OXA-24 and OXA-51 beta-lactamases assessed as sub-MIC effect at 0.2 times MIC concentration incubated for 1 hr by viable plate count method; format: functional
Haemophilus influenzae [15] = experiment: Antibacterial activity against amoxicillin, clavulanate-resistant Haemophilus influenzae expressing beta-lactamase assessed as sub-MIC effect at 0.2 times MIC concentration incubated for 1 hr by viable plate count method; format: functional
Enterococcus faecalis [16] = experiment: Antibacterial activity against vancomycin-sensitive Enterococcus faecalis assessed as post-antibiotic sub-MIC effect at 0.4 times MIC concentration pretreated with 10 times MIC concentration for 1 hr followed by 1:1000 dilution by viable plate count method; format: functional
[17] = Half life in patient serum at 100 mg, iv followed by 50 mg every 12 hrs after 60 mins post dose; format: ADME, organism-based; details: human
Streptococcus pneumoniae [18] = experiment: Antibacterial activity against penicillin-intermediate Streptococcus pneumoniae assessed as post-antibiotic sub-MIC effect at 0.3 times MIC concentration pretreated with 10 times MIC concentration for 1 hr followed by 1:1000 dilution by viable plate count method; format: functional
Enterococcus faecalis [19] = experiment: Antibacterial activity against vancomycin-sensitive Enterococcus faecalis assessed as sub-MIC effect at 0.3 times MIC concentration incubated for 1 hr by viable plate count method; format: functional
Klebsiella pneumoniae [20] = experiment: Antibacterial activity against Klebsiella pneumoniae assessed as post-antibiotic sub-MIC effect at 0.2 times MIC concentration pretreated with 2 times MIC concentration for 1 hr followed by 1:1000 dilution by viable plate count method; format: functional
Escherichia coli [21] = experiment: Antibacterial activity against Escherichia coli assessed as post antibiotic effect at 6 times MIC concentration incubated for 1 hr measured after 1:1000 dilution by viable plate count method; format: functional
Staphylococcus aureus [22] = experiment: Antibacterial activity against vancomycin-sensitive methicillin-resistant Staphylococcus aureus assessed as post-antibiotic sub-MIC effect at 0.3 times MIC concentration pretreated with 10 times MIC concentration for 1 hr followed by 1:1000 dilution by viable plate count method; format: functional
Klebsiella pneumoniae [23] = experiment: Antibacterial activity against Klebsiella pneumoniae assessed as post antibiotic effect; format: functional
Escherichia coli [24] = experiment: Antibacterial activity against Escherichia coli assessed as post antibiotic effect at 10 times MIC concentration incubated for 1 hr measured after 1:1000 dilution by viable plate count method; format: functional
Enterococcus faecalis [25] = experiment: Antibacterial activity against vancomycin-sensitive Enterococcus faecalis assessed as post-antibiotic sub-MIC effect at 0.3 times MIC concentration pretreated with 10 times MIC concentration for 1 hr followed by 1:1000 dilution by viable plate count method; format: functional
Haemophilus influenzae [26] = experiment: Antibacterial activity against beta-lactamase deficient and ampicillin-resistant Haemophilus influenzae by macrodilution method; format: functional
Klebsiella pneumoniae [27] = experiment: Antibacterial activity against Klebsiella pneumoniae assessed as post-antibiotic sub-MIC effect at 0.4 times MIC concentration pretreated with 2 times MIC concentration for 1 hr followed by 1:1000 dilution by viable plate count method; format: functional
Escherichia coli [28] = experiment: Antibacterial activity against Escherichia coli assessed as post-antibiotic sub-MIC effect at 0.4 times MIC concentration pretreated with 6 times MIC concentration for 1 hr followed by 1:1000 dilution by viable plate count method; format: functional
Enterococcus faecium = experiment: Antibacterial activity against Enterococcus faecium assessed as post antibiotic effect; format: functional
Streptococcus pneumoniae [29] = experiment: Antibacterial activity against penicillin-resistant Streptococcus pneumoniae assessed as post-antibiotic sub-MIC effect at 0.4 times MIC concentration pretreated with 10 times MIC concentration for 1 hr followed by 1:1000 dilution by viable plate count method; format: functional
Staphylococcus aureus [30] = experiment: Antibacterial activity against vancomycin-intermediate methicillin-resistant Staphylococcus aureus assessed as post-antibiotic sub-MIC effect at 0.3 times MIC concentration pretreated with 6 times MIC concentration for 1 hr followed by 1:1000 dilution by viable plate count method; format: functional
Staphylococcus aureus [31] = experiment: Antibacterial activity against vancomycin-sensitive methicillin-resistant Staphylococcus aureus assessed as post antibiotic effect at 6 times MIC concentration incubated for 1 hr measured after 1:1000 dilution by viable plate count method; format: functional
Enterococcus faecalis [32] = experiment: Antibacterial activity against vancomycin-sensitive Enterococcus faecalis by macrodilution method; format: functional
Staphylococcus aureus [33] = experiment: Antibacterial activity against vancomycin-sensitive methicillin-resistant Staphylococcus aureus assessed as sub-MIC effect at 0.3 times MIC concentration incubated for 1 hr by viable plate count method; format: functional

What does the source list for CN(C)c1cc(NC(=O)CNC(C)(C)C)c(O)c2c1C[C@H]1C[C@H]3[C@H](N(C)C)C(O)=C(C(N)=O)C(=O)[C@@]3(O)C(O)=C1C2=O [TIGECYCLINE]?
PAE (Klebsiella pneumoniae [1]): 0.7 h; PAE (Enterococcus faecalis [2]): 7.6 h; PAE (Acinetobacter baumannii [3]): 0.7 h; PAE (Acinetobacter baumannii [4]): > 11.2 h; PAE (Enterococcus faecalis [5]): 0.4 h; PAE (Staphylococcus aureus [6]): 5.6 h; PAE (Haemophilus influenzae [7]): 4.7 h; PAE (Staphylococcus aureus [8]): 3.6 h; PAE (Klebsiella pneumoniae [9]): 2 h; PAE (Acinetobacter baumannii [10]): 1.5 h; PAE (Haemophilus influenzae [11]): 2.8 h; PAE (Staphylococcus aureus [12]): 4 h; PAE (Escherichia coli [13]): 1.9 h; PAE (Acinetobacter baumannii [14]): 0.4 h; PAE (Haemophilus influenzae [15]): 0 h; PAE (Enterococcus faecalis [16]): 8.2 h; half-life [17]: 40 h; PAE (Streptococcus pneumoniae [18]): 8.8 h; PAE (Enterococcus faecalis [19]): 0.2 h; PAE (Klebsiella pneumoniae [20]): 1.8 h; PAE (Escherichia coli [21]): 1.9 h; PAE (Staphylococcus aureus [22]): 5.2 h; PAE (Klebsiella pneumoniae [23]): 2 h; PAE (Escherichia coli [24]): 2 h; PAE (Enterococcus faecalis [25]): 6.8 h; MIC (Haemophilus influenzae [26]): 0.06 µg/mL (≈ 0.102 µM); PAE (Klebsiella pneumoniae [27]): 2.6 h; PAE (Escherichia coli [28]): 3.3 h; PAE (Enterococcus faecium): 2.5 h; PAE (Streptococcus pneumoniae [29]): 10.2 h; PAE (Staphylococcus aureus [30]): 9.8 h; PAE (Staphylococcus aureus [31]): 2.9 h; MIC (Enterococcus faecalis [32]): 0.06 µg/mL (≈ 0.102 µM); PAE (Staphylococcus aureus [33]): 0.2 h
